# Source: patent publication US20160311812A1, “ADENOSINE A1 AGONISTS AS MEDICAMENTS FOR KIDNEY DISORDERS” (BAYER PHARMA AKTIENGESELLSCHAFT, priority 2013, published 2016)
# Columns and labels:
# [1] = test system: unilaterally nephrectomized SHR; assay: Functional and structural renal dysfunction in unilaterally nephrectomized spontaneously hypertensive rats; format: in vivo, rat; conditions: Group 5: SNX + 3.0 mg/kg body weight/day p.o., 4 weeks
# Text: (§1) B-4. Effects of Partial A1 Agonists on Renal and Cardiac Function in Unilaterally Nephrectomized and Spontaneously Hypertensive Rats (Example 2 for Chronic Kidney Disorders)
# (§2) Unilaterally nephrectomized, spontaneously hypertensive rats (SHR) are an established animal model for investigating the development and progression of hypertensive damage of the glomeruli in the remaining kidney [H. Kinuno et al., “Effects of uninephrectomy on renal structural properties in spontaneously hypertensive rats”, Clin and Exp Pharmacol and Physiol 2005, 32, 173-178]. […] Furthermore, renal excretion of substances usually eliminated in the urine, such as creatinine and urea, is reduced and the electrolyte metabolism is disturbed, the latter being associated with volume retention.
# (§3) Procedure: male SHR rats (180-220 g) from Taconic had the left kidney removed in one session (=UNX). Normotensive Wistar Kyoto rats (WKY) from Taconic served as control. The following groups, each with 12 rats per group, were investigated:
# (§4) Group 2 UNX+placebo (60 g glycerol+100 g water+969 g PEG-400)
# (§5) Group 3 UNX+10 mg/kg body weight/day enalapril (reference therapy, in the drinking water)
# (§6) Group 4 SNX+1.0 mg/kg body weight/day partial A1 EXAMPLE 1, p.o. in placebo
# (§7) Group 5 SNX+3.0 mg/kg body weight/day partial A1 EXAMPLE 4, p.o. in placebo
# (§8) Three weeks after unilateral nephrectomy, the SHRs developed manifest hypertensive damage of the glomeruli in the remaining kidney, from this time point on the rats were treated for a further four weeks corresponding to the groups given above. At the end of the protocol, the following samples were obtained/measurements were carried out: eight-hour urine collection, invasive measurement of systolic and diastolic left ventricular function, and TaqMan analyses of renal injury markers in the renal cortex.
# [2] = test system: 5/6 nephrectomy rat model; assay: Functional and structural renal dysfunction in 5/6 nephrectomized rats; format: in vivo; conditions: 4 weeks; for End organ injury marker concentration in the urine: hFABP / End organ injury marker concentration in the urine: hFABP per creatinine: ELISA; for Kidney injury marker-1 [gene expression] / Lipocalin-2 [gene expression] / Osteopontin [gene expression]: renal cortex
# Text: (§9) B-3. Effects of Partial A1 Agonists on Renal and Cardiac Function in 5/6 Nephrectomized Rats (Example 1 for Chronic Kidney Disorder)
# (§10) 5/6 nephrectomy in the rat, in which one kidney and the renal cortex of the second kidney are surgically removed (=5/6 of functional kidney tissue) is an established animal model for interstitial renal fibrosis and chronic renal insufficiency [C. Fleck et al., “Suitability of 5/6 nephrectomy (5/6NX) for the induction of interstitial renal fibrosis in rats Influence of sex, strain, and surgical procedure”, Exp. Tox. Pathology 2006, 57, 195-205]. The model is characterized by progressive proteinuria, disturbed tubular electrolyte transport, a reduced glomerular filtration rate, an increase in urinary output, interstitial fibrosis with reactively occurring lymphocyte infiltrates, glomerulosclerosis and tubular atrophy. The level of proteinuria is a specific index of the renal function prognosis: the higher the proteinuria, the greater is the functional and structural kidney injury and therefore progression of chronic to terminal renal insufficiency (uraemia). During monitoring of therapy, e.g. with the ACE inhibitor enalapril, the course of proteinuria provides information on the functional and structural response to the therapy and thus on the renal function prognosis. As a result of the renal insufficiency and accumulation of umemic toxins, in the animals there is secondary development of a umemic cardiomyopathy, depending on the severity associated with hypertension, increased heart rate, reduced parasympathetic tone, myocardial, left-ventricular hypertrophy and fibrosis, diastolic dysfunction and an increased prevalence of arrhythmias [Svilerova et al. 2010 Physiol Res 59: S81-S88).
# (§11) Procedure: male Wistar:WU rats (210-250 g) from Charles River had the left kidney and the renal cortex of the right kidney removed (=SNX) in one session; sham-operated rats served as control group (=SOP). The following groups, each with 12 rats per group, were investigated:
# (§12) Group 2 SNX+placebo (60 g glycerol+100 g water+969 g PEG-400)
# (§13) Group 3 SNX+10 mg/kg body weight/day enalapril (reference therapy, in the drinking water)
# (§14) Group 4 SNX+0.1 mg/kg body weight/day partial A1 agonist EXAMPLE 1, p.o. in placebo
# (§15) Group 5 SNX+1.0 mg/kg body weight/day partial A1 agonist EXAMPLE 1, p.o. in placebo
# (§16) Group 6 SNX+0.3 mg/kg body weight/day partial A1 agonist EXAMPLE 4, p.o. in placebo
# (§17) Group 7 SNX+3.0 mg/kg body weight/day partial A1 agonist EXAMPLE 4, p.o. in placebo
# (§18) Three weeks after 5/6 nephrectomy, the rats developed manifest proteinuria, from this time point the rats were treated for a further four weeks corresponding to the groups stated above. At the end of the protocol, the following samples were obtained/measurements were carried out: eight-hour urine collection with determination of the concentration of hFABP in the urine by ELISA (Rat/Mouse h-FABP ELISA, Hycultbiotech), as marker for end organ damage, invasive measurement of the isoprenaline-induced increase (cumulatively 12.5 ng-250 ng/kg isoprenaline, i.v.) in systolic and diastolic left ventricular function, and TaqMan analyses of renal injury markers in the renal cortex.
# [3] = test system: 5/6 nephrectomy rat model; assay: Left-ventricular diastolic dysfunction under isoprenaline infusion in 5/6 nephrectomized rats; format: in vivo; conditions: 4 weeks
# Text: as §9, §10, §11, §12, §13, §14, §15, §16, §17, §18
# [4] = test system: unilaterally nephrectomized SHR; assay: Functional and structural myocardial dysfunction in unilaterally nephrectomized spontaneously hypertensive rats; format: in vivo, rat; conditions: Group 5: SNX + 3.0 mg/kg body weight/day p.o., 4 weeks
# Text: as §1, §2, §3, §4, §5, §6, §7, §8
# [5] = Group 6: SNX + 0.3 mg/kg body weight/day p.o.
# [6] = Group 7: SNX + 3.0 mg/kg body weight/day p.o.
smiles,measurement,setting,value
"N#Cc1c(SCc2csc(-c3ccc(Cl)cc3)n2)nc(N2CCCC2)c(C#N)c1-c1ccc(OCCO)cc1 [EXAMPLE 4, 2-({[2-(4-Chlorophenyl)-1,3-thiazol-4-yl]methyl}sulphanyl)-4-[4-(2-hydroxyethoxy)phenyl]-6-(pyrrolidin-1-yl)pyridine-3,5-dicarbonitrile]",P-creatinine,[1],58 ± 0.6 µmol/L
same,P-urea,[1],8.7 ± 0.2 mmol/L
same,U-creatinine,[1],3.4 ± 0.9 μmol/ml urine/kg BW/h
same,U-protein,[1],0.96 ± 0.26 μmol/ml urine/kg BW/h
same,U-sodium,[1],46 ± 11 μmol/ml urine/kg BW/h
same,U-urea,[1],337 ± 89 μmol/ml urine/kg BW/h
same,Urine volume,[1],1.8 ± 0.2 ml/kg BW/h
same,CYR61 [gene expression],[1]; renal cortex,274 ± 21 rel. expression
same,Lipocalin-2 [gene expression],[1]; renal cortex,119 ± 9 rel. expression
same,P-creatinine,[2]; [5],64 ± 1 µmol/L
same,P-urea,[2]; [5],11 ± 0.3 mmol/L
same,U-creatinine,[2]; [5],3.1 ± 0.2 μmol/ml urine/kg BW/h
same,U-protein,[2]; [5],1.70 ± 0.29 μmol/ml urine/kg BW/h
same,U-sodium,[2]; [5],19 ± 3 μmol/ml urine/kg BW/h
same,U-urea,[2]; [5],330 ± 25 μmol/ml urine/kg BW/h
same,Urine volume,[2]; [5],1.8 ± 0.1 ml/kg BW/h
same,End organ injury marker concentration in the urine: hFABP,[2]; [5],3125 ± 497 pg hFABP/ml urine/h
same,End organ injury marker concentration in the urine: hFABP per creatinine,[2]; [5],386 ± 57 pg hFABP/μmol creatinine
same,Kidney injury marker-1 [gene expression],[2]; [5],68 ± 14 rel. expression
same,Lipocalin-2 [gene expression],[2]; [5],340 ± 49 rel. expression
same,Osteopontin [gene expression],[2]; [5],6882 ± 1240 rel. expression
same,P-creatinine,[2]; [6],63 ± 1 µmol/L
same,P-urea,[2]; [6],11 ± 0.3 mmol/L
same,U-creatinine,[2]; [6],2.7 ± 0.3 μmol/ml urine/kg BW/h
same,U-protein,[2]; [6],0.97 ± 0.12 μmol/ml urine/kg BW/h
same,U-sodium,[2]; [6],43 ± 5 μmol/ml urine/kg BW/h
same,U-urea,[2]; [6],281 ± 30 μmol/ml urine/kg BW/h
same,Urine volume,[2]; [6],1.8 ± 0.2 ml/kg BW/h
same,End organ injury marker concentration in the urine: hFABP,[2]; [6],1706 ± 249 pg hFABP/ml urine/h
same,End organ injury marker concentration in the urine: hFABP per creatinine,[2]; [6],218 ± 39 pg hFABP/μmol creatinine
same,Kidney injury marker-1 [gene expression],[2]; [6],56 ± 18 rel. expression
same,Lipocalin-2 [gene expression],[2]; [6],283 ± 45 rel. expression
same,Osteopontin [gene expression],[2]; [6],6340 ± 1656 rel. expression
same,left-ventricular pressure decrease as a function of time,"[3]; isoprenaline 0 ng/kg body weight, Group 6: SNX + 0.3 mg/kg body weight/day p.o.",6518 ± 221 mmHg/s
same,left-ventricular pressure decrease as a function of time,"[3]; isoprenaline 0 ng/kg body weight, Group 7: SNX + 3.0 mg/kg body weight/day p.o.",6884 ± 383 mmHg/s
same,left-ventricular pressure decrease as a function of time,"[3]; isoprenaline 12.5 ng/kg body weight, Group 6: SNX + 0.3 mg/kg body weight/day p.o.",7733 ± 233 mmHg/s
same,left-ventricular pressure decrease as a function of time,"[3]; isoprenaline 12.5 ng/kg body weight, Group 7: SNX + 3.0 mg/kg body weight/day p.o.",8369 ± 395 mmHg/s
same,left-ventricular pressure decrease as a function of time,"[3]; isoprenaline 25 ng/kg body weight, Group 6: SNX + 0.3 mg/kg body weight/day p.o.",8001 ± 224 mmHg/s
same,left-ventricular pressure decrease as a function of time,"[3]; isoprenaline 25 ng/kg body weight, Group 7: SNX + 3.0 mg/kg body weight/day p.o.",8557 ± 396 mmHg/s
same,left-ventricular pressure decrease as a function of time,"[3]; isoprenaline 50 ng/kg body weight, Group 6: SNX + 0.3 mg/kg body weight/day p.o.",8763 ± 195 mmHg/s
same,left-ventricular pressure decrease as a function of time,"[3]; isoprenaline 50 ng/kg body weight, Group 7: SNX + 3.0 mg/kg body weight/day p.o.",9100 ± 341 mmHg/s
same,left-ventricular pressure decrease as a function of time,"[3]; isoprenaline 100 ng/kg body weight, Group 6: SNX + 0.3 mg/kg body weight/day p.o.",9621 ± 212 mmHg/s
same,left-ventricular pressure decrease as a function of time,"[3]; isoprenaline 100 ng/kg body weight, Group 7: SNX + 3.0 mg/kg body weight/day p.o.",10263 ± 294 mmHg/s
same,left-ventricular pressure decrease as a function of time,"[3]; isoprenaline 250 ng/kg body weight, Group 6: SNX + 0.3 mg/kg body weight/day p.o.",9968 ± 162 mmHg/s
same,left-ventricular pressure decrease as a function of time,"[3]; isoprenaline 250 ng/kg body weight, Group 7: SNX + 3.0 mg/kg body weight/day p.o.",10385 ± 352 mmHg/s
same,Diastolic blood pressure,[4],144 ± 6 mmHg
same,Heart rate,[4],326 ± 9 beats/min
same,"Left ventricular hypertrophy (LVS/RV ratio, mg/mg)",[4],4.5 ± 0.2 mg/mg
same,Left-ventricular end-diastolic pressure,[4],10.22 ± 1.6 mmHg
same,Left-ventricular pressure,[4],196 ± 5 mmHg
same,Pressure decrease over time,[4],−10680 ± 524 mmHg/s
same,Pressure increase over time,[4],9419 ± 383 mmHg/s
same,Systolic blood pressure,[4],205 ± 5 mmHg
